# Measured values taken from patent publication US4559362A, “Immunopotentiator” (Zaidan Hojin Biseibutsu Kagaku Kenkyu Kai, priority 1982, dated 1985).
# Like-named read-outs stand apart in the source and are kept apart here.
# Columns and labels:
# [1] = tested on: delayed-type hypersensitivity (DTH) to sheep erythrocytes; experiment: Effect on delayed-type hypersensitivity (DTH) to sheep erythrocytes, sole swelling; type: in vivo, CDF1 mice
# Experimental: (§1) The pharmacological effects of spermidine will be illustrated by reference to the following experimental examples, in which spermidine was administered as its phosphate dissolved in physiological saline.
# In accordance with the method of Lagrange et al. (Lagrange, P. H., Mackaness, G. B., and Miller, T. E.: Influence of dose and route of antigen injection on the immunological induction of T cells. J. Exp. Med. 139, 528-542, 1974), the effect of spermidine on cellular immunity was investigated using as its index the degree of delayed-type hypersensitivity (DTH) to sheep erythrocytes as the antigen. CDF1 mice (8 weeks old, female) were intravenously injected with 10^5 or 10^8 sheep erythrocytes for immunization, and at the same time, were intraperitoneally injected with spermidine. Four days later, the soles of the mice were subcutaneously injected with 10^8 sheep erythrocytes to induce the DTH reaction. Twenty four hours later, swellings on the soles were measured with a caliper to evaluate the effect of spermidine.
# [2] = tested on: interleukine-2 production (T blast cells); experiment: Interleukine-2 production by spleen cells, activity of promoting the proliferation of T blast cells; type: cell-based, CDF1 mice; conditions: for activity at 0.001 µg/mL / activity at 0.01 µg/mL / activity at 0.1 µg/mL / activity at 1 µg/mL: Mus musculus, 24 h, control = 100, read-out: ^3 H-thymidine incorporation, T blast cells; for activity at 0.001 µg/mL: 0.001 μg/ml; for activity at 0.01 µg/mL: 0.01 μg/ml; for activity at 0.1 µg/mL: 0.1 μg/ml; for activity at 1 µg/mL: 1 μg/ml
# Experimental: (§2) The effect of spermidine on the production of interleukine was investigated in accordance with the method of Larsson et al. (Larsson, E-L: Mechanism of T cell activation II. Antigen- and lectin-dependent acquisition of responsiveness to TCGF is a nonmitogenic, active response of resting T cells. J. Immunol. 126, 1323-1326, 1981).
# (§3) Spermidine in a varying concentration was added to 1×10^7 spleen cells/ml of CDF1 mice. In the presence or absence of added concanavalin A (2 μg/ml), the stimulant of interleukine-2 production, the cells were then cultured in a cell incubator kept at 37° C. and at a carbon dioxide concentration of 5% for 24 hours. After completion of the incubation, α-methylmannoside was added to the supernatant to inactivate concanavalin A. The supernatant was collected to examine its interleukine-2 activity. The interleukine-2 activity was determined by the activity of promoting the proliferation of T blast cells and the activity of promoting the division of thymocytes. The latter two activities were determined by measuring ^3 H-thymidine incorporations to both types of cells.
# [3] = tested on: interleukine-2 production (Thymocytes); experiment: Interleukine-2 production by spleen cells, activity of promoting the division of thymocytes; type: cell-based, CDF1 mice; conditions: for activity at 0.001 µg/mL / activity at 0.01 µg/mL / activity at 0.1 µg/mL / activity at 1 µg/mL: Mus musculus, Thymocyte, 24 h, control = 100, read-out: ^3 H-thymidine incorporation, Thymocytes; for activity at 0.001 µg/mL: 0.001 μg/ml; for activity at 0.01 µg/mL: 0.01 μg/ml; for activity at 0.1 µg/mL: 0.1 μg/ml; for activity at 1 µg/mL: 1 μg/ml
# Experimental: as §2, §3
# [4] = tested on: suppressor cells against DTH; experiment: Inhibition of the elevation of suppressor cells against DTH (spleen cell transfer), sole swelling; type: in vivo, CDF1 mice; conditions: transferred suppressor cells; for % suppression: untreated suppressor cells 53
# Experimental: as §1
# Experiments were conducted to transfer suppressor cells, in accordance with the method of Yamaguchi et al. (Yamaguchi, K. and Kishimoto, S.: Distinction between suppressors of the delayed-type hypersensitivity and the humoral response to sheep erythrocytes. Immunology. 35, 721-731, 1978). CDF1 mice (8 weeks old, female) were intravenously administered with 10^8 sheep erythrocytes, the amount enough to induce the elevation of suppressor cells against DTH. The objective was to promote the production of suppressor cells. Two days later, supermidine was intraperitoneally injected once daily, and this treatment was continued for 3 days. Five days later, spleen cells were collected from the mice, and 4.5×10^7 cells of them were transferred to normal syngenic mice by i.v. injection. Simultaneously, 10^5 sheep erythrocytes, the amount enough to obtain the optimal reaction, was i.v. injected for immunization.
# Four days later, 10^8 sheep erythrocytes were subcutaneously injected to the soles of the mice to induce the reaction. Twenty-four hours later, swellings on the soles were measured to evaluate the efficacy of spermidine.
# [5] = Toxicity given intravenously to mice; type: in vivo; conditions: 250 mg/kg intravenously
# Experimental: Spermidine used in this invention has a very low toxicity. It is not toxic at a dose of 250 mg/kg when given intravenously to mice.
# [6] = tested on: alternative pathway of the complement system; experiment: Activation of the alternative pathway of the complement system (hemolysis of rabbit blood cells in normal human serum); type: biochemical; conditions: for % consumption of complement component C3: 37° C., 60 minutes
# Experimental: The effect of spermidine on the activation of the alternative pathway of the complement system was investigated in accordance with the method of Platts-Mills and Ishizaka (Platt-Mills, T. A. E. and Ishizaka, K.: Activation of the alternative pathway of human complement by rabbit cells. J. Immune. 113, 348-358, 1974).
# Spermidine was added to normal human serum in EGTA buffer solution, and the mixture was heated at 37° C. for 60 minutes. Rabbit blood cells were then added to the mixture. The degree of hemolysis was measured with a spectrophotometer at 412 nm to evaluate the effect of spermidine.
# [7] = tested on: IMC cancer cells; experiment: Growth inhibitory effect on cultured IMC cancer cells; type: cell-based; conditions: 48 hours, 37° C., read-out: concentration at which 50% of the original cells were inhibited from growth
# Experimental: A study was conducted on the growth inhibitory effect of spermidine on cultures of IMC cancer cells and L-1210 cells. IMC cancer cells were cultured in an RPMI 1640 medium containing 10% bovine fetus serum and 2-mercaptoethanol, and L-1210 cells in an MEM medium containing 10% calf serum, for 48 hours at 37° C. in 5% carbon dioxide. The number of cultured cells was counted with a Coulter counter to evaluate the degree of cell proliferation. Spermidine was added at the start of incubation.
compound,measurement,setting,value
"NCCCCNCCCN [Spermidine, spermidine]",effect on normal cellular immunity,[1]; 5 to 0.005 mg/kg,enhances normal cellular immunity
same,Swelling on the sole,"[1]; 10^5 sheep erythrocytes, 0.01 μg/mouse (0.0005) i.p.",5.8 ± 0.4 × 0.1 mm
same,% increase (swelling on the sole),"[1]; 10^5 sheep erythrocytes, 0.01 μg/mouse (0.0005) i.p., untreated 10^5 group = 100",91%
same,Swelling on the sole,"[1]; 10^5 sheep erythrocytes, 0.1 μg/mouse (0.005) i.p.",9.4 ± 0.7 × 0.1 mm
same,% increase (swelling on the sole),"[1]; 10^5 sheep erythrocytes, 0.1 μg/mouse (0.005) i.p., untreated 10^5 group = 100",147%
same,Swelling on the sole,"[1]; 10^5 sheep erythrocytes, 1 μg/mouse (0.05) i.p.",8.5 ± 0.7 × 0.1 mm
same,% increase (swelling on the sole),"[1]; 10^5 sheep erythrocytes, 1 μg/mouse (0.05) i.p., untreated 10^5 group = 100",133%
same,Swelling on the sole,"[1]; 10^5 sheep erythrocytes, 10 μg/mouse (0.5) i.p.",8.9 ± 0.7 × 0.1 mm
same,% increase (swelling on the sole),"[1]; 10^5 sheep erythrocytes, 10 μg/mouse (0.5) i.p., untreated 10^5 group = 100",139%
same,Swelling on the sole,"[1]; 10^5 sheep erythrocytes, 100 μg/mouse (5) i.p.",8.1 ± 1.1 × 0.1 mm
same,% increase (swelling on the sole),"[1]; 10^5 sheep erythrocytes, 100 μg/mouse (5) i.p., untreated 10^5 group = 100",126%
same,Swelling on the sole,"[1]; 10^5 sheep erythrocytes, 1000 μg/mouse (50) i.p.",7.1 ± 0.3 × 0.1 mm
same,% increase (swelling on the sole),"[1]; 10^5 sheep erythrocytes, 1000 μg/mouse (50) i.p., untreated 10^5 group = 100",111%
same,effect of enhancing cellular immunity,"[1]; 10^5 sheep erythrocytes, 0.01 or 1000 μg/mouse",no enhancing effect
same,effect of enhancing cellular immunity,"[1]; 10^5 sheep erythrocytes, 0.1 to 100 μg/mouse",significant effect of enhancing cellular immunity
same,Swelling on the sole,"[1]; 10^8 sheep erythrocytes, 0.01 μg/mouse (0.0005) i.p.",4.5 ± 0.2 × 0.1 mm
same,% increase (swelling on the sole),"[1]; 10^8 sheep erythrocytes, 0.01 μg/mouse (0.0005) i.p., untreated 10^5 group = 100, untreated 10^8 group = 48",70%
same,Swelling on the sole,"[1]; 10^8 sheep erythrocytes, 0.1 μg/mouse (0.005) i.p.",5.3 ± 0.3 × 0.1 mm
same,% increase (swelling on the sole),"[1]; 10^8 sheep erythrocytes, 0.1 μg/mouse (0.005) i.p., untreated 10^5 group = 100, untreated 10^8 group = 48",83%
same,Swelling on the sole,"[1]; 10^8 sheep erythrocytes, 1 μg/mouse (0.05) i.p.",6.3 ± 0.3 × 0.1 mm
same,% increase (swelling on the sole),"[1]; 10^8 sheep erythrocytes, 1 μg/mouse (0.05) i.p., untreated 10^5 group = 100, untreated 10^8 group = 48",98%
same,Swelling on the sole,"[1]; 10^8 sheep erythrocytes, 10 μg/mouse (0.5) i.p.",6.4 ± 0.06 × 0.1 mm
same,% increase (swelling on the sole),"[1]; 10^8 sheep erythrocytes, 10 μg/mouse (0.5) i.p., untreated 10^5 group = 100, untreated 10^8 group = 48",100%
same,Swelling on the sole,"[1]; 10^8 sheep erythrocytes, 100 μg/mouse (5.0) i.p.",6.4 ± 0.4 × 0.1 mm
same,% increase (swelling on the sole),"[1]; 10^8 sheep erythrocytes, 100 μg/mouse (5.0) i.p., untreated 10^5 group = 100, untreated 10^8 group = 48",100%
same,Swelling on the sole,"[1]; 10^8 sheep erythrocytes, 1000 μg/mouse (50) i.p.",7.4 ± 0.5 × 0.1 mm
same,% increase (swelling on the sole),"[1]; 10^8 sheep erythrocytes, 1000 μg/mouse (50) i.p., untreated 10^5 group = 100, untreated 10^8 group = 48",116%
same,effect of strengthening cellular immunity,"[1]; 10^8 sheep erythrocytes, 0.1 to 1000 μg/mouse, vs 10^8 control group",marked effect of strengthening cellular immunity
same,DTH reaction compared with group immunized with 10^5 erythrocytes,"[1]; 10^8 sheep erythrocytes, 10 to 1000 μg/mouse",comparable
same,effect on suppression of cellular immunity by suppressor cells,[1]; 50 to 0.5 mg/kg,inhibit the suppression of cellular immunity by suppressor cells
same,optimal concentration (interleukin-2 production),[2],0.1 µg/mL
same,activity at 0.001 µg/mL,[2]; with Con A (2 μg/ml),94%
same,activity at 0.001 µg/mL,[2]; without Con A,137%
same,activity at 0.01 µg/mL,[2]; with Con A (2 μg/ml),153%
same,activity at 0.01 µg/mL,[2]; without Con A,152%
same,activity at 0.1 µg/mL,[2]; with Con A (2 μg/ml),157%
same,activity at 0.1 µg/mL,[2]; without Con A,166%
same,activity at 1 µg/mL,[2]; with Con A (2 μg/ml),152%
same,activity at 1 µg/mL,[2]; without Con A,136%
same,optimal concentration (interleukin-2 production),[3],0.1 µg/mL
same,activity at 0.001 µg/mL,[3]; with Con A (2 μg/ml),126%
same,activity at 0.001 µg/mL,[3]; without Con A,171%
same,activity at 0.01 µg/mL,[3]; with Con A (2 μg/ml),130%
same,activity at 0.01 µg/mL,[3]; without Con A,255%
same,activity at 0.1 µg/mL,[3]; with Con A (2 μg/ml),149%
same,activity at 0.1 µg/mL,[3]; without Con A,281%
same,activity at 1 µg/mL,[3]; with Con A (2 μg/ml),135%
same,activity at 1 µg/mL,[3]; without Con A,90%
same,Swelling on the sole,[4]; 10 μg/mouse i.p. once daily for 3 days,8.0 ± 0.3 × 0.1 mm
same,% suppression,[4]; 10 μg/mouse,42%
same,Swelling on the sole,[4]; 100 μg/mouse i.p. once daily for 3 days,10.2 ± 0.4 × 0.1 mm
same,% suppression,[4]; 100 μg/mouse,26%
same,Swelling on the sole,[4]; 1000 μg/mouse i.p. once daily for 3 days,10.9 ± 0.8 × 0.1 mm
same,% suppression,[4]; 1000 μg/mouse,21%
same,toxicity,[5],not toxic
same,% consumption of complement component C3,[6]; 2 mg/ml,0%
same,% consumption of complement component C3,[6]; 4 mg/ml,66.1%
same,% consumption of complement component C3,[6]; 8 mg/ml,83.6%
same,activation of the alternative pathway of complement,[6]; 4 to 8 mg/ml,clearly activates the alternative pathway of complement
same,IC50,[7],2.4 µg/mL
